This is an account of results in a melting point compilation (Tetko et al.).

The structures appear in SMILES notation.

What is called melting point is the temperature of the solid-liquid transition. In turn, `CC12CCC3C(CCC4CC(OC=O)CCC43C)C1CC=C2C#Cc1ccccc1` (stereo not drawn) had a melting point of 179 to 180 °C.
The value for `Cc1ccc(N(C)C(=S)Cl)cc1` was 56 to 59 °C.
To `O=C(O)c1ccc(-c2ccco2)nc1` belongs 200 °C.
The value for `O=Cc1cccn1-c1ccc([N+](=O)[O-])cc1` was 166 to 169 °C.
In turn, `CCCCCCCCCCOc1c(OC)cc(C(N)=O)cc1OC` had a melting point of 122 °C.
To `Fc1cc(Br)c(F)cc1Br` belongs 62 °C.
To `N#CC1(C(=O)c2ccccc2)C(c2ccc(F)cc2)NC(=O)NC1c1ccc(F)cc1` (stereo not drawn) belongs 226 to 227 °C.
To `O=C1C(C(O)c2ccc(O)cc2)C(C(F)(F)F)=NN1c1ccccc1` (stereo not drawn) belongs 211 °C; to `N#CCc1nn(-c2ccccc2)c(N)c1C#N`, 164 °C.
Consider `COc1cc(C)c(C=O)cc1C`, for which the melting point was in the range of 31 to 35 °C.
The value for `CCCC(=O)c1cc2cc(Br)cc(Br)c2oc1=O` was 200 to 202 °C; that for `COC(=O)c1c(P(c2ccccc2)c2ccccc2)ccc2ccccc12` was 108 °C.
To `CC(=O)Oc1c[nH]c2ccccc12` belongs 129 °C; to `CC(CO)C1=C(O)C(=O)C2=C(CC(O)C3C(C)(C)CCCC23C)C1=O` (stereo not drawn), 186 °C.
The value for `CC12CCC(C(=O)Cl)(OC1=O)C2(C)C` (stereo not drawn) was 66 °C; that for `O=C(COc1ccc(Cl)cc1)n1c(=O)sc2ccccc21` was 143 °C.
For `O=[N+]([O-])c1cc([N+](=O)[O-])c(C(Br)C(Br)c2ccccc2)cc1/C=C\c1ccccc1` (stereo not drawn), the melting point turned out to be 212 °C.
The value for `O=C(NC(=O)c1c(F)cccc1F)Nc1ccc(CON=C(c2ccc(Cl)cc2)C2CC2)cc1` was 144 °C; that for `O=C(NC1CCN(CCc2c[nH]c3ccccc23)CC1)c1ccccc1` was 208 °C; that for `OC1COC2C(O)COC12` (stereo not drawn) was 88 °C.
To `CCC(C=C1C(=O)C2(C)CCC1C2(C)C)C(=O)O` (stereo not drawn) belongs 118 °C; to `CC1(C)SC2C(N3C(=O)C(c4ccccc4)NC3(C)C)C(=O)N2C1C(=O)O` (stereo not drawn), 190 °C; to `O=C1C(=CC2C(=O)N(c3ccccc3)N=C2c2ccc([N+](=O)[O-])cc2)C(c2ccc([N+](=O)[O-])cc2)=NN1c1ccccc1` (stereo not drawn), 283 to 284 °C.
To `O=C(O)CNc1ccccc1` belongs 128 °C.
Regarding `O=C(O)C=Cc1ccccc1C(=O)O`, the melting point is 197 to 202 °C.
The value for `Oc1ccccc1S` was 20 °C.
The value for `N#Cc1cccc(CS(=O)(=O)Cl)c1` was 100 to 102 °C.
`C1CCCCCC2OC2CCCC1` (stereo not drawn) yielded a melting point of -7 °C.
The value for `Nc1ccc(Br)cc1N` was 62 to 64 °C; that for `CCCCSCCC(N)C(=O)O` (racemic) was 238 to 243 °C; that for `Cc1ccc(Oc2ncccc2N)c2c1CCC2` was 150 °C.
The value for `CC(=Nc1c(O)ccc2ccccc12)c1c(O)c2ccccc2n(-c2ccccc2)c1=O` was 219 °C.
To `N#Cc1cc(S(=O)(=O)Cl)ccc1F` belongs 69 °C; to `O=C1CCCCCCCCCCCCCCCO1`, 33.5 °C.
Consider `CC1C(=O)C23C(O)CC4C(C)(C)CCC(O)C4(C)C2C(O)CC1C3O` (stereo not drawn), for which the melting point is 282 °C.
To `CC(=O)Oc1nn(-c2ccccc2)cc1Br` belongs 82 to 85 °C; to `OCc1cc(O)ccc1O`, 100 °C; to `COCCOC`, -58 °C.
To `CN1C(=O)CC(c2ccccc2)C1=O` (stereo not drawn) belongs 72 °C; to `Cc1ccc2ccccc2c1[N+](=O)[O-]`, 81.5 °C; to `N#CCc1nc(-c2ccc([N+](=O)[O-])cc2)cs1`, 147 to 148 °C.
To `CCOC1OC(=O)c2c(OC)cccc21` (stereo not drawn) belongs 67 °C; to `CCOC(=O)c1c(C)c(C(C)=O)c(C)n1C`, 61 to 62 °C; to `C=C1c2cc(OC)c(OC)cc2CCN1C(C)=O`, 107 to 109 °C.
On to `Cc1cccc(Cl)c1I`, for which the melting point came to 27 °C.
The value for `Cc1ccccc1C(=O)NCC(=O)O` was 161 to 165 °C.
To `NS(=O)(=O)c1ccccc1[N+](=O)[O-]` belongs 191 °C.
With `CC(=O)OCC1C(=O)C2(C)CCC1C2(C)C` (stereo not drawn), the melting point was 148 °C.
The value for `CC(C(=O)NCCO)c1ccc(-c2ccccc2)c(F)c1` (stereo not drawn) was 94 to 96 °C.
The value for `O=C1C=CCN1[C@@H](CO)c1ccccc1` was 103 °C.
The value for `CC(=O)c1ccc(C=O)s1` was 105 to 106 °C; that for `O=C1CN=C(c2ccccc2)c2cc(Cl)ccc2N1CC1CC1` was 146 °C; that for `CC(C)(C)C(N)P(=O)(O)O` (stereo not drawn) was 245 to 252 °C.
The compound `CC(=O)c1csc2ccccc12` returned a melting point of 64 °C.
In turn, `CC1OC(=O)C(C)C1CC(O)C(C)(O)C1CCC2(O)C3=CC(=O)C4CC(O)C(O)CC4(C)C3CCC12C` (stereo not drawn) displayed a melting point of 158 to 160 °C.
In turn, `Nc1ccc(Cl)nn1` registered a melting point of 210 to 211 °C.
`COC(=O)c1cccc(CBr)c1` showed a melting point of 44 °C.
The value for `CCCOC(=O)C1=C(C)NC(=S)NC1c1cccc([N+](=O)[O-])c1` (stereo not drawn) was 209 °C; that for `Cc1cccc(C(C)C)c1O` was -14.5 °C.
The value for `CC(=O)Nc1ccc(Br)c(C(=O)O)c1` was 186 to 188 °C; that for `C1OC2COCOC2C2OCOCC2O1` (stereo not drawn) was 232 to 233 °C.
To `COCCOCCOCCOC` belongs -45 °C; to `CC(C)(Oc1ccc(C2CC2(Cl)Cl)cc1)C(=O)O` (stereo not drawn), 115 °C.
Regarding `COc1ccc(C(=O)Cl)cc1OC`, the melting point turned out to be 71 °C.
Compound `CCN(CC)CCc1c[nH]c2ccccc12` yielded a melting point of 170 °C.
To `Nc1ccccc1C(=O)c1ccccc1` belongs 107 °C.
To `Cc1nc2cc(Cl)ccc2o1` belongs 54 to 57 °C; to `O=NN1CCCC1c1cccnc1` (stereo not drawn), 47 °C; to `NC(=O)C(Cl)(Cl)Cl`, 142 °C.
The value for `CC(=O)Oc1c(-c2ccccc2)[nH]c2cc([N+](=O)[O-])ccc12` was 191 °C; that for `O=C(C1=NOC2C(=O)N(c3ccc(O)cc3)C(=O)C12)c1ccccc1` (stereo not drawn) was 99 °C.
`CC1(C)N=C(N)N=C(N)N1c1ccc(Cl)cc1` yielded a melting point of 146 °C.
To `CC12CCC(O)CC1CCC1C2CCC2(C)C(C3=CC(=O)OC3)CCC12O` (stereo not drawn) belongs 253 °C; to `O=C(O)C=Cc1ccc(F)cc1C(F)(F)F`, 182 °C; to `CC(=O)Nc1cc2c(cc1/C=C/c1ccccc1)CC(c1ccccc1)N2C(C)=O` (stereo not drawn), 272 °C.
To `CCCCCC(O)C=CC1C(O)CC(=O)C1CC=CCCCC(=O)O` (stereo not drawn) belongs 67 °C.
The value for `CC(=O)Nc1ccccc1CCNC(=O)c1ccc2ccccc2c1O` was 225 to 227 °C.
Regarding `CCC(C=O)(CC)CCC#N`, the melting point was found to be 97 °C.
To `CCOC(=O)c1c(C)sc(Sc2ccccc2[N+](=O)[O-])c1OC(C)=O` belongs 130 to 131 °C; to `Cc1cccc(C)c1NC(=O)C1C2C=CC(C2)C1C(=O)O` (stereo not drawn), 167 °C.
The value for `O=C(Cl)c1ccc(CCl)cc1` was 29 to 33 °C; that for `O=C(O)C=CC(=O)Nc1ccc(F)cc1` was 209 to 212 °C; that for `Brc1ccc2sccc2c1` was 47 to 48 °C.
`CNc1c(C=O)c(=O)oc2ccccc12`: the melting point is 215 to 216 °C.
The compound `Cc1cc(C)c(CS)c(C)c1CS` returned a melting point of 65 to 66 °C.
The value for `CCOC(=O)c1[nH]c(C)c(C(C)=O)c1C` was 146 to 147 °C.
To `COc1cc(CCn2cccc2C(=O)O)cc(OC)c1OC` belongs 132 °C; to `O=C1c2ccccc2C(=O)N1CCS(=O)(=O)Cl`, 158 °C.
The value for `CC1=C(C)C(=O)C(C(CCCCCC(=O)O)c2ccccc2)=C(C)C1=O` (stereo not drawn) was 128 °C; that for `OCc1cccc2nonc12` was 72 °C.
`CCC(C)C(NC(=O)OCC1c2ccccc2-c2ccccc21)C(=O)O` (stereo not drawn) returned a melting point of 146 to 149 °C.
To `Clc1ccc(C2NN=C3c4ccccc4CCC32)cc1` (stereo not drawn) belongs 181 to 184 °C; to `OC1CCCCC1Cl` (stereo not drawn), 29 °C; to `O=C1OC(=O)C2CC12` (stereo not drawn), 54 to 60 °C.
Turning to `O=C(Cl)c1csc(Cc2c(Cl)cccc2Cl)n1`, the melting point is 104 °C.
To `CN(C)c1ccc(-c2c(C#N)c(N)n(N)c(=O)c2C#N)cc1` belongs 328 to 330 °C; to `Cn1cnc([N+](=O)[O-])c1Cl`, 146 to 150 °C.
The value for `CC(=O)NC1C(O)OC(CO)C(O)C1OC(C)C(=O)O` (stereo not drawn) was 125 °C; that for `O=C(Cl)C=Cc1ccccc1` was 36 °C.
To `Cc1cc(C)n2nc(N)c(/N=N/c3cc(Cl)ccc3Cl)c2n1` belongs 279 °C; to `COC1=CC(C)C2CC3OC(O)CC4C(C)=C(OC)C(=O)C(C2(C)C1=O)C34C` (stereo not drawn), 227 °C; to `FC(F)(F)c1ccccc1-n1ccnc1`, 52 °C.
Compound `Nc1cc(F)c(F)c(F)c1F` had a melting point of 28 °C.
The value for `CON=C(C(=O)Sc1nc2ccccc2s1)c1csc(N)n1` was 126 to 130 °C.
To `O=C1OC2(c3ccc(O)cc3Oc3cc(O)ccc32)c2ccc(N=C=S)cc21` belongs 360 °C; to `Cc1c(C#N)c2ccccc2n1C`, 105 °C.
In the case of `O=C(O)c1cc(-c2cccs2)on1`, the melting point is 168 °C.
`CCCCCCCCCCCCCCCCCCOCCOCCOCCOCCOCCOCCOCCOCCOCCOCCOCCOCCOCCOCCOCCOCCOCCOCCOCCOCCO` displayed a melting point of 44 to 46 °C.
